Test results taken from US12128041B2, “Nanoparticles for delivering drug, whose surface is modified with peptide for targeting brain cancer, preparation method thereof and use thereof” (UNIVERSITY-INDUSTRY COOPERATION GROUP OF KYUNG HEE …, priority 2020, dated 2024).
Where two headings read alike, the source gives them in different places. One block for each molecule: values may come before it. Where a SMILES comes first, the peptide text is derived from it.

How the values were obtained:
[1] = In vivo distribution of TAMRA-labeled SIWV peptide in healthy mice by fluorescence signal; conditions: tail vein injection
U87MG cells [2] = assay: Cytotoxicity in U87MG cells, WST-1 cell viability; assay type: cell-based, human; conditions: 6 hours
Procedure: (§1) The present inventor conducted the following experiments to confirm the intracellular uptake efficiency and cytotoxicity of SIWV-pSiNP(SN-38). Specifically, U87MG cells were seeded into 96-well plates at a density of 10,000 cells/well and cultured under the conditions of 5% CO2 and 37° C. for 24 hours. Thereafter, the cells were treated with 100 μL of each of the SN-38 drug alone, pSiNPs, pSiNP(SN-38) and SIWV-pSiNP(SN-38) nanoparticles at a concentration of 6.25, 12.5, 25, 50, and 100 μM, respectively, and cultured for 6 hours. After 6 hours, in order to confirm the intracellular uptake efficiency, cell nuclei were stained by treating the cells with a 4′,6-diamino-2-phenylindole (DAPI) reagent for 10 minutes, and cell membranes were then stained by treating the cells with a CellMask™ Deep Red Plasma membrane stain reagent for 1 hour. After staining, the cells were washed three times with PBS and treated with 4% paraformaldehyde for 20 minutes to fix the cells, and then the cells were observed under a confocal microscope.
Meanwhile, after the cells were treated with SN-38 and each of the nanoparticles as described above and cultured for 6 hours, 10 μL of a 10% WST-1 reagent was added to each well and the cells were cultured for 2 hours. Thereafter, cell viability was analyzed by measuring the absorbance at 450 nm using a microplate reader, and the cell viability was analyzed using a relative percentage for U87MG cells not treated with nanoparticles.

U87MG cells [3] = assay: Intracellular uptake in U87MG cells by confocal microscope; assay type: cell-based, human; conditions: cultured for 6 hours
Procedure: as §1

[4] = mouse, in vivo
[5] = Passage through the blood-brain barrier, confocal microscopy of brain tissue sections; assay type: in vivo, mice; conditions: brain removed 3 hours after tail vein injection of SIWV-TAMRA

Structure (SMILES): CN(C)c1ccc2c(-c3ccccc3C(=O)[O-])c3ccc(N(C)C)cc3[o+]c2c1 [TAMRA, tetramethylrhodamine]
time of excretion from the body [1]: ≤ 2 h

Structure (SMILES): CCc1c2c(nc3ccc(O)cc13)-c1cc3c(c(=O)n1C2)COC(=O)[C@]3(O)CC [SN-38, 7-ethyl-10-hydroxy-camptothecin]
cytotoxicity (toxicity of U87MG cells) (U87MG cells [2]; 6.5 μM): 12.4%
cytotoxicity (U87MG cells [2]; 100 μM): 55.4%
concentration dependence of toxicity (U87MG cells [2]; U87MG cells, 6.25 to 100 μM): increased toxicity as the treatment concentration was increased
intracellular uptake (U87MG cells [3]): intracellular uptake did not occur

time of excretion from the body [4]: 24 h
passage through the blood-brain barrier [5]: passed through the blood-brain barrier
Structure (SMILES): CC[C@H](C)[C@H](NC(=O)[C@@H](N)CO)C(=O)N[C@@H](Cc1c[nH]c2ccccc12)C(=O)N[C@H](C(=O)O)C(C)C [SIWV peptide] (H-SIWV-OH; N-terminus and C-terminus assumed)
